# In US20130338061A1, “Salts and Polymorphs of Sulfamide NS3 Inhibitors” (priority 2010, published 2013):
# Columns and labels:
# [1] = biological target: HCV NS3-4A serine protease (full-length NS3-4A protein, genotype 1a, strain HCV-1) (Hepatitis C virus genotype 1a, UniProt P26664); assay: HCV NS3-4A protease assay; format: biochemical; conditions: fluorogenic peptide substrate
# Method: The inhibitory activity of Compound X against HCV NS3-4A serine protease is determined in a homogenous assay using the full-length NS3-4A protein (genotype 1a, strain HCV-1) and a commercially available internally-quenched fluorogenic peptide substrate as described by Taliani, M., et al. 1996 Anal. Biochem. 240:60-67, which is incorporated by reference in its entirety.
# [2] = tested on: subgenomic genotype 1b HCV replicon cell line (Huh-Luc/neo-ET); assay: Luciferase-based HCV replicon assay; format: cell-based; conditions: Hepatitis C virus; Huh-Luc/neo-ET replicon cells, 48-h treatment, 10% FBS; read-out: IC50 in replicon assay (luciferase activity reduced by 50%)
# Method: The antiviral activity and cytotoxicity of Compound X is determined using a subgenomic genotype 1b HCV replicon cell line (Huh-Luc/neo-ET) containing a luciferase reporter gene, the expression of which is under the control of HCV RNA replication and translation. Briefly, 5,000 replicon cells are seeded in each well of 96-well tissue culture plates and are allowed to attach in complete culture media without G418 overnight. On the next day, the culture media are replaced with media containing serially diluted Compound X in the presence of 10% FBS and 0.5% DMSO. After a 48-h treatment with the compound, the remaining luciferase activities in the cells are determined using BriteLite reagent (Perkin Elmer, Wellesley, Mass.) with a LMaxII plate reader (Molecular Probe, Invitrogen). Each data point represents the average of four replicates in cell culture. IC50 is the concentration of the compound at which the luciferase activity in the replicon cells is reduced by 50%. The cytotoxicity of the compound is evaluated using an MTS-based cell viability assay.
# HCV NS3-4A serine protease (full-length NS3-4A protein, genotype 1a, strain HCV-1), sequence (P26664 1658-1711): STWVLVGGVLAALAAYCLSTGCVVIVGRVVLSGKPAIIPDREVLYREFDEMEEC
# HCV NS3-4A serine protease (full-length NS3-4A protein, genotype 1a, strain HCV-1), sequence (P26664 1027-1657): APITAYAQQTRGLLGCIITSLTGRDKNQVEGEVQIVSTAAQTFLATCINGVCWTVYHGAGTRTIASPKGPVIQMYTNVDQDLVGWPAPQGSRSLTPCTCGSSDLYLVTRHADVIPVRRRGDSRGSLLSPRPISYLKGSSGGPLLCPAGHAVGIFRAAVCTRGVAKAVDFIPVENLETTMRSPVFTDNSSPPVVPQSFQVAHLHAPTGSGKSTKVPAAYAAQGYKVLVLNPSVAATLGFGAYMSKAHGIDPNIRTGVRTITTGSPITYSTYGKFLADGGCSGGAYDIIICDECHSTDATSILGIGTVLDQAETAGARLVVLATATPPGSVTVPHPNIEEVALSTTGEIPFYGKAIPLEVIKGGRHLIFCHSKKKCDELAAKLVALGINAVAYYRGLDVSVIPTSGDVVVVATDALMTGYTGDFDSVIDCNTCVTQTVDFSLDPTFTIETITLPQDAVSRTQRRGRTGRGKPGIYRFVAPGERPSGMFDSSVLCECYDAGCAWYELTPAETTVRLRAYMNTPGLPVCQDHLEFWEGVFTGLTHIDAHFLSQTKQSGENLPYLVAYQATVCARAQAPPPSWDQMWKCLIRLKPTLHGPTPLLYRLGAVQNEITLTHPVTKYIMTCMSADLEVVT
smiles,measurement,setting,value
"CC[C@@H]1C[C@]1(NC(=O)[C@@H]1C[C@@]2(CN1C(=O)[C@@H](NC(=O)[C@@H](NC(=O)[C@@H]1CCCCN1C(C)C)C1CCCCC1)C(C)(C)C)C(C)(C)C21CCC1)C(=O)NS(=O)(=O)N1CCCC1 [Compound X, (5R,8S)-7-[(2S)-2-{[(2S)-2-cyclohexyl-2-({[(2S)-1-isopropylpiperidin-2-yl]carbonyl}amino)acetyl]amino}-3,3-dimethylbutanoyl]-N-{(1R,2R)-2-ethyl-1-[(pyrrolidin-1-ylsulfonyl)carbamoyl]cyclopropyl}-10,10-dimethyl-7-azadispiro[3.0.4.1]decane-8-carboxamide]",IC50,[1],4.5 nM
same,IC50,[2],< 100 nM
